Measured values reported in BindingDB's records for PubMed 9686407 (Sri International, 1998).
Non-standard residues stand in square brackets, D forms with d. Residues, ends and D or L forms follow the SMILES beside them. NMeF = CN[C@@H](Cc1ccccc1)C(=O)O

Experiments:
Mu-type opioid receptor = Mu-type opioid receptor (Cavia porcellus, UniProt P97266)
[1] = molecular target: Kappa-type opioid receptor (Cavia porcellus, UniProt P41144)
D(1A) dopamine receptor = D(1A) dopamine receptor (Homo sapiens, UniProt P21728)
[2] = molecular target: T1, 5-hydroxytryptamine receptor 3A (Mus musculus, UniProt P23979)
T1 sequence (P23979 whole entry): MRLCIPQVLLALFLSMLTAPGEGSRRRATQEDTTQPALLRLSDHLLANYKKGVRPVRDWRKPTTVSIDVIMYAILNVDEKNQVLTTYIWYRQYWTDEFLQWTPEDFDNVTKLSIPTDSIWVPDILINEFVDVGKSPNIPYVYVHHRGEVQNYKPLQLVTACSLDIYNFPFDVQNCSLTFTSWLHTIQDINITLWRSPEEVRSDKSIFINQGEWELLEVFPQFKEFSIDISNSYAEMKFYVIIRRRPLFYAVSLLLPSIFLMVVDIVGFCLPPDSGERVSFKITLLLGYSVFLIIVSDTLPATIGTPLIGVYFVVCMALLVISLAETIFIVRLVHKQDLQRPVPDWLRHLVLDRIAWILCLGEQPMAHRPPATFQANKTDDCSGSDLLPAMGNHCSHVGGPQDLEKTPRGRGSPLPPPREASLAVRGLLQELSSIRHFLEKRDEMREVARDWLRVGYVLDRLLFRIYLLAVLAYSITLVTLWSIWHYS

[3] = molecular target: T2, 5-hydroxytryptamine receptor 2C (Rattus norvegicus, UniProt P08909)
T2 sequence (P08909 whole entry): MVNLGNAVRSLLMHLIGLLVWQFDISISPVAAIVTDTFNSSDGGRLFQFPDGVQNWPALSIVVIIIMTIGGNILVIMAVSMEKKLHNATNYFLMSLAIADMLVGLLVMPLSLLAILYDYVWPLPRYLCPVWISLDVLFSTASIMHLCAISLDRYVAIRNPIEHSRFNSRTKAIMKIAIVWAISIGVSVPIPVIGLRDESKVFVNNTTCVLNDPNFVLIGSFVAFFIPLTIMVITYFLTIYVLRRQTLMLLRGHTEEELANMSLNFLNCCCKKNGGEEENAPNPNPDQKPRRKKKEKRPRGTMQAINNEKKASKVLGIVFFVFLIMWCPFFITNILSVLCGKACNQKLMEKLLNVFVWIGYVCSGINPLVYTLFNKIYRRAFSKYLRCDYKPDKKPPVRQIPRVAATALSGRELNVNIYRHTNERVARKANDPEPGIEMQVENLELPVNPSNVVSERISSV

[4] = molecular target: T3, 5-hydroxytryptamine receptor 1A (Homo sapiens, UniProt P08908)
T3 sequence (P08908 whole entry): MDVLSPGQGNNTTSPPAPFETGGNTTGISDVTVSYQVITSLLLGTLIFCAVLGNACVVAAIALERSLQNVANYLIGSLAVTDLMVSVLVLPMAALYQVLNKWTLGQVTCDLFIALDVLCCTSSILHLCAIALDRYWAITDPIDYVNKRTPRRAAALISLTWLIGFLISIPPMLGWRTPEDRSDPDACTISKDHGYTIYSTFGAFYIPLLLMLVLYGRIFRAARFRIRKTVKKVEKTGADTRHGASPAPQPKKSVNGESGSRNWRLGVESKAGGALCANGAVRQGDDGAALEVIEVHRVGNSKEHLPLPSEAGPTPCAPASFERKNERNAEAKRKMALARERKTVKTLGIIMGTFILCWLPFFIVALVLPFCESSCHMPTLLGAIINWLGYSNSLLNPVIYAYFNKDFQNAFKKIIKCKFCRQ

[5] = molecular target: 5-hydroxytryptamine receptor 2A (Rattus norvegicus, UniProt P14842)
Chain of 5-hydroxytryptamine receptor 2A (P14842 whole entry): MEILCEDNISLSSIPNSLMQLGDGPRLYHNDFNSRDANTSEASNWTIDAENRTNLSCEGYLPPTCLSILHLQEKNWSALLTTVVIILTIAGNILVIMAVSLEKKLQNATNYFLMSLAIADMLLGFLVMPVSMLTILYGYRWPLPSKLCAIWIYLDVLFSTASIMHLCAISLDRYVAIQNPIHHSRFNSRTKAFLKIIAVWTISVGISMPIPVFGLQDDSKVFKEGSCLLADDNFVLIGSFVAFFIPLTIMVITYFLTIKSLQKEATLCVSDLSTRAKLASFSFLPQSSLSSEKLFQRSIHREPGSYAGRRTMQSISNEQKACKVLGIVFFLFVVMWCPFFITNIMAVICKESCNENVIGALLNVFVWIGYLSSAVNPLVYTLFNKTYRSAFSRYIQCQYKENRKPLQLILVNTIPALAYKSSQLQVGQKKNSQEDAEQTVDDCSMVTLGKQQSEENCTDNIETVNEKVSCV

Chain of D(1A) dopamine receptor (P21728 whole entry): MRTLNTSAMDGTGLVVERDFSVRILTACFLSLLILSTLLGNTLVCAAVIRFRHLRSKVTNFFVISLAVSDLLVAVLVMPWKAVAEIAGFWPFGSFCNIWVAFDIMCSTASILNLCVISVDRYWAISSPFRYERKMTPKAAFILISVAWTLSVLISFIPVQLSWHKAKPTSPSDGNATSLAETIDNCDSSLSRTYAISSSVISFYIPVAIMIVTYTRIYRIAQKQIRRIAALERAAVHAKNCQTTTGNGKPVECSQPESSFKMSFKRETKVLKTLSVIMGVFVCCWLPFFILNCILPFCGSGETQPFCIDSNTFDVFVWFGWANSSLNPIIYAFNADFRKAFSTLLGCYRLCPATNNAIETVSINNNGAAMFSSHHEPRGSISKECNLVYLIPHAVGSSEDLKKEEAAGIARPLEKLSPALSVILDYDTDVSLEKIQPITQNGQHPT
Chain of Kappa-type opioid receptor (P41144 whole entry): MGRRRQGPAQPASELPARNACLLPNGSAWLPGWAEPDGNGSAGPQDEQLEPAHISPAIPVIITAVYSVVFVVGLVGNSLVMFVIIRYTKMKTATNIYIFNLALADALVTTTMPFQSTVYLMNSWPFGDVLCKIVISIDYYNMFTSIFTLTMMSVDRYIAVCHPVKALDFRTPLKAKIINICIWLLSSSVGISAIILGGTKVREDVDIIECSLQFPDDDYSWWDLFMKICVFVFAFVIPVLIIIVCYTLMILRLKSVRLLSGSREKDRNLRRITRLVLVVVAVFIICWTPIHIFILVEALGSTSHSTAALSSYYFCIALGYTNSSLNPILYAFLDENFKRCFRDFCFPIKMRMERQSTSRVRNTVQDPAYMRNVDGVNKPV
Chain of Mu-type opioid receptor (P97266 whole entry): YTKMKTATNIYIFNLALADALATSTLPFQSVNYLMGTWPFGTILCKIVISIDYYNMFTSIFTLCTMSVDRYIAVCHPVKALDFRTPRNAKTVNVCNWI

C[C@@H](O)[C@H](NC(=O)[C@H]1NC(=O)[C@H]([C@@H](C)O)NC(=O)[C@H](CCCN=C(N)N)NC(=O)[C@@H](Cc2c[nH]c3ccccc23)NC(=O)[C@H](Cc2ccc(O)cc2)NC(=O)[C@@H](NC(=O)[C@H](N)Cc2ccccc2)CSSC1(C)C)C(N)=O [CTAP-NH2]
Ki (Mu-type opioid receptor): 0.5 nM
Ki [1]: 1050 nM

CC(C)C[C@H](NC(=O)[C@H](Cc1ccccc1)NC(=O)CNC(=O)CNC(=O)[C@@H](N)Cc1ccc(O)cc1)C(=O)N[C@@H](CCCN=C(N)N)C(=O)N[C@@H](CCCN=C(N)N)C(=O)N[C@@H](CCC(N)=O)C(=O)N[C@@H](Cc1ccccc1)C(=O)N[C@@H](CCCCN)C(=O)N[C@H](C(=O)N[C@H](C(=O)N[C@H](C(=O)O)[C@@H](C)O)C(C)C)C(C)C [Dynorphin B (1-13)]
Ki (Mu-type opioid receptor): 5.5 nM

CC[C@H](C)[C@H](NC(=O)[C@H](CCCNC(=N)N)NC(=O)[C@H](CCCNC(=N)N)NC(=O)[C@H](CC(C)C)NC(=O)[C@H](Cc1ccccc1)NC(=O)CNC(=O)CNC(=O)[C@@H](N)Cc1ccc(O)cc1)C(=O)N[C@@H](CCCNC(=N)N)C(=O)N1CCC[C@H]1C(=O)N[C@@H](CCCCN)C(=O)N[C@@H](CC(C)C)C(=O)N[C@@H](CCCCN)C(=O)O [Dynorphin A (1-13)]
Ki (Mu-type opioid receptor): 3.3 nM

CN1CCC2(C)c3cc(O)ccc3CC1C2(C)CCC(=O)CCC1CCCC1 (stereo unspecified) [CAS_115077]
Ki (Mu-type opioid receptor): 0.1 nM
Ki [1]: 0.2 nM

CN1CC[C@]23CCCC[C@H]2[C@H]1Cc1ccc(O)cc13 [CAS_5985-38-6]
Ki (Mu-type opioid receptor): 0.3 nM
Ki [1]: 3.4 nM

CCC12CCN(CC3(O)CC3)C(Cc3ccc(O)cc31)C2(C)C (stereo unspecified)
Ki (Mu-type opioid receptor): 0.1 nM

H-YGGFMTSEKSQTPLVTLFKNAIVKNAHKKGQ-OH [Beta-Endorphin]
Ki (Mu-type opioid receptor): 2.3 nM
Ki [1]: 43.5 nM

Oc1ccc2c3c1OC1C(O)C=CC4C(C2)NCCC341 (stereo unspecified) [NORMORPHINE]
Ki (Mu-type opioid receptor): 3.9 nM
Ki [1]: 64.5 nM

CN1CC[C@]23c4c5ccc(O)c4O[C@H]2[C@@H](O)CCC3[C@H]1C5 (stereo partly specified) [DIHYDROMORPHINE]
Ki (Mu-type opioid receptor): 0.8 nM

CN(C(=O)[C@@H]1CCCN1C(=O)[C@@H](N)Cc1ccc(O)cc1)[C@@H](Cc1ccccc1)C(=O)N1CCC[C@@H]1C(N)=O (H-YP[NMeF][dP]-NH2)
Ki (Mu-type opioid receptor): 8.1 nM
Ki [1]: > 10000 nM

CC(C)C[C@@H](NC(=O)[C@H](Cc1ccccc1)NC(=O)CNC(=O)[C@@H](C)NC(=O)[C@@H](N)Cc1ccc(O)cc1)C(=O)O [[D-Ala2-D-Leu5]enkephalin]
Ki (Mu-type opioid receptor): 3.2 nM
Ki [1]: > 10000 nM

CN1CC(C(=O)N[C@]2(C)O[C@@]3(O)C4CCCN4C(=O)[C@H](Cc4ccccc4)N3C2=O)CC2c3cccc4[nH]cc(c34)CC21 (stereo partly drawn) [7-Methyl-4,6,6a,7,8,9,10,10a-octahydro-indolo[4,3-fg]quinoline-9-carboxylic acid ((2R,5S,10bS)-5-benzyl-10b-hydroxy-2-methyl-3,6-dioxo-octahydro-oxazolo[3,2-a]pyrrolo[2,1-c]pyrazin-2-yl)-amide]
Ki (D(1A) dopamine receptor): 2780 nM
Ki [2]: > 10000 nM
Ki [3]: 298 nM
Ki [4]: 1.5 nM
Ki [5]: 38 nM

Oc1ccc2c3c1O[C@H]1c4oc5ccccc5c4C[C@@]4(O)[C@@H](C2)N(CC2CC2)CC[C@]314 [CAS_111555-58-9]
Ki (Mu-type opioid receptor): 6.5 nM
Ki [1]: 10.2 nM

CN1CCN(c2nc3cc(C(F)(F)F)ccc3n3cccc23)CC1 [CAS_109028-10-6]
Ki (D(1A) dopamine receptor): 1530 nM
Ki [2]: > 10000 nM
Ki [3]: 6600 nM
Ki [4]: 44 nM
Ki [5]: 3130 nM

NC(=O)N1c2ccccc2C=Cc2ccccc21 [5H-dibenzo[b,f]azepine-5-carboxamide]
Ki (D(1A) dopamine receptor): > 10000 nM
Ki [2]: > 10000 nM
Ki [3]: > 10000 nM
Ki [4]: > 10000 nM
Ki [5]: > 10000 nM

Oc1ccc2c3c1OC1c4[nH]c5ccccc5c4CC4(O)[C@H](C2)N(CC2CC2)CCC314 (stereo partly specified) [NALTRINDOLE]
Ki (Mu-type opioid receptor): 0.2 nM
Ki [1]: 7.8 nM

COC(=O)[C@H]1[C@H]2C[C@@H]3c4[nH]c5cc(OC)ccc5c4CCN3C[C@H]2C[C@@H](OC(=O)c2cc(OC)c(OC)c(OC)c2)[C@@H]1OC [Apoplon]
Ki (D(1A) dopamine receptor): 3850 nM
Ki [2]: > 10000 nM
Ki [3]: 3100 nM
Ki [4]: 1830 nM
Ki [5]: 3060 nM

C[C@@H]1[C@@H]2Cc3ccc(O)cc3[C@@]1(C)CCN2CC1CC1 [(SSS)-12-Cyclopropylmethyl-13-methyl-12-aza-tricyclo[9.1.1.0*3,8*]trideca-3(8),4,6-trien-6-ol(cyclazocine)]
Ki [1]: 0.1 nM

CC(C)C[C@H]1C(=O)N2CCC[C@H]2[C@]2(O)O[C@](NC(=O)[C@@H]3C=C4c5cccc6[nH]c(Br)c(c56)C[C@H]4N(C)C3)(C(C)C)C(=O)N12 [Bromocriptine+ (GTP+)]
Ki (D(1A) dopamine receptor): 2070 nM
Ki [2]: > 10000 nM
Ki [3]: 4670 nM
Ki [4]: 25 nM
Ki [5]: 117 nM

CC(C)[C@H](NC(=O)[C@H](CCC(=O)O)NC(=O)[C@H](Cc1ccccc1)NC(=O)[C@@H](C)NC(=O)[C@@H](N)Cc1ccc(O)cc1)C(=O)N[C@H](C(=O)NCC(N)=O)C(C)C [Tyr-D-Ala-Phe-Glu-Val-Val-GlyNH2]
Ki [1]: > 10000 nM

CC(C)=CCN1CC[C@@]2(C)c3cc(O)ccc3C[C@@H]1[C@@H]2C [Talwin]
Ki (Mu-type opioid receptor): 5.7 nM
Ki [1]: 4.4 nM

CN1C2CCC1CC(OC(=O)c1c[nH]c3ccccc13)C2 (stereo unspecified)
Ki (D(1A) dopamine receptor): > 10000 nM
Ki [2]: 0.5 nM
Ki [3]: > 10000 nM
Ki [4]: > 10000 nM
Ki [5]: 5610 nM

CN1C2CCC1CC(OC(=O)c1cc(Cl)cc(Cl)c1)C2 (stereo unspecified) [MDL 72222]
Ki (D(1A) dopamine receptor): > 10000 nM
Ki [2]: 14 nM
Ki [3]: > 10000 nM
Ki [4]: > 10000 nM
Ki [5]: 2850 nM

CC[C@H](C)[C@H](NC(=O)[C@H](CCCN=C(N)N)NC(=O)[C@H](CCCN=C(N)N)NC(=O)[C@H](CC(C)C)NC(=O)[C@H](Cc1ccccc1)NC(=O)CNC(=O)CNC(=O)[C@@H](N)Cc1ccc(O)cc1)C(=O)O
Ki [1]: 1.4 nM

CC(C)C[C@H](NC(=O)[C@H](Cc1ccccc1)NC(=O)CNC(=O)[C@@H](CO)NC(=O)[C@@H](N)Cc1ccc(O)cc1)C(=O)N[C@H](C(=O)O)[C@@H](C)O [DSLET-OH]
Ki (Mu-type opioid receptor): 20.6 nM
Ki [1]: > 10000 nM

C=CCN1CC[C@]23c4c5ccc(O)c4O[C@H]2[C@@H](O)C=CC3[C@H]1C5 (stereo partly specified) [NALORPHINE - HCI]
Ki (Mu-type opioid receptor): 1.9 nM
Ki [1]: 1.7 nM

C=C1CCC2(O)C3Cc4ccc(O)c5c4C2(CCN3CC2CC2)C1O5 (stereo unspecified) [NSC_119501]
Ki (Mu-type opioid receptor): 0.3 nM
Ki [1]: 0.3 nM

CN[C@@H](C)Cc1ccccc1 [METHAMPHETAMINE (+)]
Ki (D(1A) dopamine receptor): > 10000 nM
Ki [2]: > 10000 nM
Ki [3]: > 10000 nM
Ki [4]: > 10000 nM
Ki [5]: > 10000 nM

C=CCN1CCC23c4c5ccc(O)c4O[C@@H]2C(=NNC(=O)c2ccccc2)CCC3(O)C1C5 (stereo partly specified)
Ki (Mu-type opioid receptor): 0.2 nM
Ki [1]: 0.4 nM

COC(=O)[C@@H](c1ccccc1)[C@@H]1CCCCN1
Ki (D(1A) dopamine receptor): > 10000 nM
Ki [2]: > 10000 nM
Ki [3]: > 10000 nM
Ki [4]: > 10000 nM
Ki [5]: > 10000 nM

COc1ccc2c3c1OC1C(O)C=CC4C(C2)N(C)CCC341 (stereo unspecified) [NSC_223652]
Ki (Mu-type opioid receptor): 152 nM
Ki [1]: > 10000 nM

CC[C@@]12CCN(CC3CC3)C(C(=O)c3ccc(O)cc31)[C@@H]2C [EKC]
Ki (Mu-type opioid receptor): 0.4 nM

C[C@@H](NC(=O)[C@@H](N)Cc1ccc(O)cc1)C(=O)NCC(=O)N(C)[C@@H](Cc1ccccc1)C(=O)NCCO [[tyrosyl-3,5-3H(N)]-D-Ala2-Mephe4-glyol5-enkephalin]
Ki (Mu-type opioid receptor): 1.1 nM
Ki [1]: 1840 nM

Oc1ccc2c3c1O[C@H]1c4[nH]c5c(c4C[C@@]4(O)[C@@H](C2)N(CC2CC2)CC[C@]314)C[C@@]1(O)[C@H]2Cc3ccc(O)c4c3[C@@]1(CCN2CC1CC1)[C@H]5O4 [C18130]
Ki (Mu-type opioid receptor): 8.3 nM

CC[C@@H]1CC2C[C@@H]3c4[nH]c5ccc(OC)cc5c4CCN(C2)C13 [IBOGAINE]
Ki (D(1A) dopamine receptor): > 10000 nM
Ki [2]: > 10000 nM
Ki [3]: > 10000 nM
Ki [4]: > 10000 nM
Ki [5]: > 10000 nM
